Data: patent publication US20240207414A1, “DISULFIDE-BASED PRODRUG COMPOUND” (Ludwig-Maximilians-Universitat Munchen, priority 2021, published 2024)

Key:
[1] = test system: 4T1 Balb/c mouse breast cancer cell line, orthotopic tumor; experiment: In vivo mouse tumor model assay P10
Excerpt: Assay Conditions and Data Representation: Immunocompetent wildtype Balb/c mice were inoculated with 4T1 Balb/c mouse breast cancer cell line orthotopically in the mammary fat pad (2×10^5 cells) and tumor growth was monitored by caliper measurement. The day when all tumors had reached ca. 150 mm^3 was defined as Day 0; on this day the mice were randomised by tumor size into groups of minimum size 5 animals (mean tumor size ca. 200 mm^3), and treated. Treatments were chosen from 0.9% NaCl (“untreated”), the vascular disrupting agent combretastatin A-4 phosphate (CA4P) at 30 mg/kg administered in 100 μL NaCl (“VDA”), compound of the invention P10 at 4 mg/kg administered in 30 μL DMSO (“P10”), or a combination regime involving treatment with VDA and then 6 hours later with P10 (“VDA+P10”). All treatments were administered intraperitoneally (i.p.). CA4P was re-applied to groups “VDA” and […] once at day 7; no P10 treatment was re-applied to either “P10” or “VDA+P10” groups. Tumor volumes were measured as assay readout.

HeLa cells = experiment: In vitro cell viability assay P10 (resazurin); format: cell-based; settings: Homo sapiens, 48 h, read-out: IC50 antiproliferation / cell viability
Description: Assay Conditions: Cells were cultured under standard conditions (Gao, L. et al. Cell Chemical Biology 2021, 28, 1-14. https://doi.org/10.1016/j.chembiol.2020.11.007), left to adhere for 24 h, then P10 was added from DMSO stock solution and adjusted to 1% vol DMSO. Cells were incubated under standard conditions for 48 h, then 0.20 volume equivalents of a solution of resazurin in PBS (0.15 mg/mL) were added and incubated for 3 hours, then fluorescence (ex 544 nm, em 590 nm) was detected on a fluorescence platereader. Cell viability (%) is calculated relative to a control experiment with no P10 added, from the fluorescence values.

A549 cells = experiment: Cellular reduction assay P12-P16 (FIG. 6); format: cell-based, human; settings: 10 μM or 40 μM, 1% vol DMSO, cells under ordinary conditions
Description: Assay Conditions: A549 cells were cultured under standard conditions (Gao, L. et al. Cell Chemical Biology 2021, 28, 1-14. https://doi.org/10.1016/j.chembiol.2020.11.007), left to adhere for 24 h, then compounds were added to 10 μM or 40 μM with 1% vol DMSO. Fluorescence timecourse measurements were acquired as in the chemoreductant assay, with all conditions in triplicates.
Experimental Results and Discussion: F(t) is the raw fluorescence intensity signal increase in arbitrary units with the same detection settings the probes releasing the same cargo. […] This trend is irrespective of the applied concentration in cells and cellular increase is constant over time. This indicates, that P13-P16 are activated more selectively by specific enzymatic cascades (as e.g. Trx/TrxR), whereas P12 may be activated more unspecifically. Thus, compounds of the invention either have the possibility of being useful by giving selective cargo release in pathologically growing cells or cells under abnormal conditions (P13-P16), or offer novel opportunities of cellular delivery of appended cargoes with optimal response kinetics (P12).

| Structure (SMILES) | tumor growth (tumor volume), combination with VDA ([1]; CA4P (VDA) 30 mg/kg i.p., then 6 hours later P10 4 mg/kg i.p.) | primary tumor progression (tumor volume) ([1]; single treatment 4 mg/kg i.p., Balb/c mice, 4T1 tumor) | IC50 (HeLa cells) | cargo release / activation inside cells (raw fluorescence F(t)) (A549 cells) |
| --- | --- | --- | --- | --- |
| O=C(c1cc2cc(OCCCN3CCC3)ccc2[nH]1)N1C[C@@H](CCl)c2c1cc(OC(=O)N1CCC[C@@H]3CSSC[C@@H]31)c1ccccc21 (racemic) [Compound P10, (S)-3-(5-(3-(azetidin-1-yl)propoxy)-1H-indole-2-carbonyl)-1-(chloromethyl)-2,3-dihydro-1H-benzo[e]indol-5-yl (cis)-hexahydro-[1,2]dithiino[4,5-b]pyridine-1(2H)-carboxylate] | still more significantly slows tumor growth | significantly slows primary tumor progression | ~200 nM |  |
| COc1ccc2c(c1)Oc1cc(OC(=O)N3CCN[C@@H]4CSSC[C@H]43)ccc1C21OC(=O)c2ccccc21 (mixture of isomers) [Compound P12, 3′-methoxy-3-oxo-3H-spiro[isobenzofuran-1,9′-xanthen]-6′-yl-trans-hexahydro-[1,2]dithiino[4,5-b]pyrazine-1(2H)-carboxylate] |  |  |  | substantially releases its cargo inside cells cultured under ordinary conditions |
